Experimental data from patent US10660912B2, “Combination therapy for cancer” (NuCana plc, priority 2015, dated 2020).

Tests used:
[1] = test system: platinum sensitive recurrent ovarian cancer; conditions: cited from earlier work
[2] = human, in vivo
Experimental: Intracellular concentrations were normalised to tissue protein concentrations. dFdCTP=2′,2′-difluoro-2′-deoxycytidine; PBMCs=Peripheral Blood Mononuclear Cells.
6 ml of blood was collected using heparinised blood collection tubes. After centrifugation and separation of plasma, buffycoat was collected and transferred to new test tube containing 3 ml of Lymphoprep density gradient. After centrifugation, the upper interface containing the PBMC layer was transferred to new test tube. After washing with phosphate buffered saline (PBS), PBMCs were re-suspended in 100 μl PBS. Then, another 100 μl of 0.8 M PCA was added and the mixture was vortex mixed and centrifuged followed by transfer of 100 μl supernatant to new test tube. The PCA extracts were stored at −80° C. until time of analysis.
PCA extracts were buffered using 50 μl of 1M NH4Ac, then neutralised using 20 μl of 10% ammonia solution. Finally, 5 μl containing the internal standard 8-ChloroATP and 5 μl deionised water were then added. The extracts were transferred to LC-MS vials and 10 μl were injected into the UPLC-MS/MS system.
10 mg/mL stock solution of the analyte was prepared and aliquot frozen at −80° C. until use. The analyte was resolved using an ultra-performance liquid chromatography system (Accela UPLC, Thermo Scientific, UK) equipped with a Biobasic AX, 5 μm, 50×2.1 mm column (Thermo Electron Corporation, Murrieta, Calif., USA) and a mobile phase consisting of a mixture of 10 mM NH4Ac in ACN/H2O (30:70 v/v), pH 6.0 (A), and 1 mM NH4Ac in ACN/H2O (30:70 v/v), pH 10.5 (B). The mobile phase gradient was employed, comprising: buffer A=95% at 0-0.5 min, from 95 to 0% over 1.25 minutes, held at 0% for 1.75 minute, from 0 to 95% over 0.1 minutes, ending with 95% for 2.9 minutes, all at a flow rate of 500 μl/min.
Eluting compounds of interest were detected using a triple stage quadrupole Vantage mass spectrometry system (Thermo Scientific, UK) equipped with an electrospray ion source. Samples were analyzed in the Multiple Reaction Monitoring (MRM), positive (+ve) and negative (−ve) ion modes at a spray voltage of 3500 and 3000 V, respectively. Nitrogen was used as sheath and auxiliary gases at a flow rate of 50 and 20 arbitrary units, respectively. Argon was used as collision gas with pressure of 1.5 mTorr.
The combination regimen NUC-1031 with carboplatin was administered to 10 patients with ovarian cancer as part of the Phase Ib study PRO-002.

Row | Apparent t1/2 (intracellular dFdCTP) ([2]; female) [h] | Clearance ([2]; female) [L/h] | Tmax (intracellular dFdCTP) ([2]; female) [h] | Cmax intracellular dFdCTP levels relative to gemcitabine in combination with carboplatin [2] [fold] | intracellular dFdCTP Cmax concentrations relative to gemcitabine [2] | SMILES | response rate ([1]; P=0.0016) [%] | median PFS ([1]; median follow-up 17 months, carboplatin AUC5 alone or AUC4 day 1 plus gemcitabine 1000 mg/m^2 days 1 & 8 every 3 weeks) [months] | levels of the toxic metabolite normally associated with gemcitabine [2]
1 | – | – | – | – | – | N.N.O=C([O-])C1(C(=O)[O-])CCC1.[Pt+2] [carboplatin] | 30.9 | 5.8 | –
2 | 9.6 | 3.9 | 1 | 4 | around 10 × | C[C@H](NP(=O)(OC[C@H]1O[C@@H](n2ccc(N)nc2=O)C(F)(F)[C@@H]1O)Oc1ccccc1)C(=O)OCc1ccccc1 (stereo partly drawn) [NUC-1031, 2′-Deoxy-2′,2′-difluoro-D-cytidine-5′-O-[phenyl (benzoxy-L-alaninyl)] phosphate] | – | – | less than half
